The values that follow come from patent US11040959B2, “Diprovocims: a new and potent class of TLR agonists” (The Scripps Research Institute, priority 2016, dated 2021).

Where two headings read alike, the source gives them in different places.

Assay [1] has as its system mouse macrophages. The experiment in a line: stimulated release of TNF-α from mouse macrophages. Particulars: for EC50: Macrophage; for activity in stimulating TNF-α release from mouse macrophages (in words): tested up to 5 μM where stated. It counts as cell-based. From the text:
EC50 values are derived from dose-response curves for the stimulated release of TNF-α from differentiated THP-1 cells or mouse macrophages are shown beneath each appropriate structural formula of Compounds 8-12. Half maximal effective concentration (EC50) refers to the concentration of a drug, antibody or toxicant that induces a response halfway between the baseline and maximum after a specified exposure time. It is commonly used as a measure of a drug's potency.

The test system of assay [2] is differentiated human THP-1 cells. The experiment in a line: stimulated release of TNF-α from differentiated human THP-1 cells (ELISA, dose-response). In kind it is cell-based. To be noted: for EC50: Homo sapiens. The protocol: A screening campaign was conducted with nearly 100,000 compounds [(a) Whitby et al., Acc. Chem. Res. 2012, 45:1698-1709; and (b) Boger et al., Angew. Chem. Int. Ed. 2003, 42:4138-4176], using a newly developed functional assay that measured the stimulated release of TNF-α from treated human THP-1 cells partially differentiated along the macrophage line [unpublished results of the inventors and co-workers]. […] The libraries screened in the efforts represent a unique compound collection populated by nontraditional compounds [(a) Whitby et al., Acc. Chem. Res. 2012, 45:1698-1709; and (b) Boger et al., Angew. Chem. Int. Ed. 2003, 42:4138-4176] designed to target protein-protein [(a) Shaginian et al., J. Am. Chem. Soc. 2009, 131:5564-5572; and (b) Whitby et al., J. Am. Chem. Soc. 2011, 133:10184-10194] or protein-DNA interactions [Stover et al., J. Am. Chem. Soc. 2009, 131:3342-3348] as well as the major enzyme classes [Otrubova et al., Bioorg. Med. Chem. Lett. 2014, 24:3807-3813].
Hits were confirmed in an ELISA assay for stimulated TNF-α release from human PMA differentiated THP-1 cells and this assay was used for establishing dose-response curves and measured EC50 values.
In general terms: ELISA stands for enzyme-linked immunosorbent assay.

Setting [3] is: Table 3, TNF-α release from mouse macrophages, read-out: EC50 (nM) (mouse).
Where [4] appears, read: THP-1, Table 3, TNF-α release from human THP-1 cells, read-out: EC50 (nM) (THP-1).
Setting [5] is: Table 1, TNF-α release from mouse macrophages, read-out: EC50 (nM) (mouse).
Where [6] appears, read: THP-1, Table 1, TNF-α release from human THP-1 cells, read-out: EC50 (nM) (THP-1).
The mark [7] stands for this setting: THP-1, running text, read-out: EC50, stimulated release of TNF-α from differentiated human THP-1 cells.

With `O=C(N[C@H]1C[C@@H]1c1ccccc1)[C@@H]1CN(C(=O)/C=C/C=C/C(=O)N2C[C@@H](C(=O)N[C@H]3C[C@@H]3c3ccccc3)[C@H](C(=O)N[C@H]3C[C@@H]3c3ccccc3)C2)C[C@H]1C(=O)N[C@H]1C[C@@H]1c1ccccc1` [Compound 52, (3S,3′S,4S,4′S)-1,1′-((2E,4E)-Hexa-2,4-dienedioyl)-bis(N^3,N^4-bis((1S,2R)-2-phenylcyclopropyl)-pyrrolidine-3,4-dicarboxamide)], the concentration for a half-maximal effect (EC50) in assay [1] (setting [3]) and in assay [2] (setting [4]) was over 5000 nM each time. Take `O=C(N[C@H]1C[C@@H]1c1ccccc1)[C@@H]1CN(C(=O)COCC(=O)N2C[C@@H](C(=O)N[C@H]3C[C@@H]3c3ccccc3)[C@H](C(=O)N[C@H]3C[C@@H]3c3ccccc3)C2)C[C@H]1C(=O)N[C@H]1C[C@@H]1c1ccccc1` [Compound 40, (3S,3′S,4S,4′S)-1,1′-(2,2′-Oxybis-(acetyl))bis-(N^3,N^4-bis((1S,2R)-2-phenylcyclopropyl)pyrrolidine-3,4-dicarboxamide)]: the EC50 in assay [1] (setting [5]) and in assay [2] (setting [6]) was over 5000 nM each time. On to `CCCCCCCCCCCCCCCCNC(=O)[C@@H]1CN(C(=O)c2ccc(C(=O)N3C[C@@H](C(=O)NCCCCCCCCCCCCCCCC)[C@H](C(=O)NCCCCCCCCCCCCCCCC)C3)cc2)C[C@H]1C(=O)NCCCCCCCCCCCCCCCC` [Compound 140, (3S,3′S,4S,4′S)-1,1′-Terephthaloylbis(N^3,N^4-dihexadecylpyrrolidine-3,4-dicarboxamide)], for which the EC50 (in general, the concentration giving half of the maximal effect) in assay [1] (table of 140-146 (four lipid side chains), mouse macrophages, read-out: EC50 (nM) (mouse)) is over 5000 nM; in assay [2] (THP-1, table of 140-146 (four lipid side chains), human THP-1 cells, read-out: EC50 (nM) (THP-1)), over 5000 nM. Turning to `O=C(N[C@H]1C[C@@H]1c1ccccc1)[C@@H]1CN(C(=O)c2ccc3cc(C(=O)N4C[C@@H](C(=O)N[C@H]5C[C@@H]5c5ccccc5)[C@H](C(=O)N[C@H]5C[C@@H]5c5ccccc5)C4)ccc3c2)C[C@H]1C(=O)N[C@H]1C[C@@H]1c1ccccc1` [Compound 44, (3S,3′S,4S,4′S)-1,1′-(Naphthalene-2,6-dicarbonyl)bis(N^3,N^4-bis((1S,2R)-2-phenylcyclopropyl)-pyrrolidine-3,4-dicarboxamide)], the EC50 in assay [1] (Table 2, TNF-α release from mouse macrophages, read-out: EC50 (nM) (mouse)) turned out to be 380 nM; in assay [2] (THP-1, Table 2, TNF-α release from human THP-1 cells, read-out: EC50 (nM) (THP-1)) it was 2 nM. The “fold less active/potent than diprovocim-1 (3)” value in assay [2] (human THP-1 cells) is on record as over 10 fold. With `O=C(NCCc1ccc(F)cc1)[C@H]1CN(C(=O)c2ccc(C(=O)N3C[C@@H](C(=O)N[C@H]4C[C@@H]4c4ccccc4)[C@H](C(=O)N[C@H]4C[C@@H]4c4ccccc4)C3)cc2)C[C@@H]1C(=O)NCCc1ccc(F)cc1` [Compound 115], the “activity in stimulating TNF-α release from mouse macrophages (in words)” value in assay [1] was “inactive”. Besides, in assay [2] (human THP-1 cells), the “fold less active than 114 in human THP-1 cells” value is 5 fold.

`O=C(N[C@H]1C[C@@H]1c1ccccc1)[C@@H]1CN(C(=O)/C=C/C(=O)N2C[C@@H](C(=O)N[C@H]3C[C@@H]3c3ccccc3)[C@H](C(=O)N[C@H]3C[C@@H]3c3ccccc3)C2)C[C@H]1C(=O)N[C@H]1C[C@@H]1c1ccccc1` [Compound 36, (3S,3′S,4S,4′S)-1,1′-Fumaroyl-bis(N^3,N^4-bis((1S,2R)-2-phenylcyclopropyl)pyrrolidine-3,4-dicarboxamide)]: the 50% effective concentration (EC50) in assay [1] (setting [5]) and in assay [2] (setting [6]) was over 5000 nM in each case. As to `O=C(N[C@H]1C[C@@H]1c1ccccc1)[C@@H]1CN(C(=O)c2cc(O)c(C(=O)N3C[C@@H](C(=O)N[C@H]4C[C@@H]4c4ccccc4)[C@H](C(=O)N[C@H]4C[C@@H]4c4ccccc4)C3)cc2O)C[C@H]1C(=O)N[C@H]1C[C@@H]1c1ccccc1` [Compound 59, (3S,3′S,4S,4′S)-1,1′-(2,5-Dihydroxy-terephthaloyl)bis(N^3,N^4-bis((1S,2R)-2-phenylcyclo-propyl)-pyrrolidine-3,4-dicarboxamide)], the results for the EC50 in assay [1] (setting [3]) and in assay [2] (setting [4]) were over 5000 nM and 20 nM, respectively. Take `O=C(CCN(CCC(=O)N[C@H]1C[C@@H]1c1ccccc1)C(=O)c1ccc(C(=O)N(CCC(=O)N[C@H]2C[C@@H]2c2ccccc2)CCC(=O)N[C@H]2C[C@@H]2c2ccccc2)cc1)N[C@H]1C[C@@H]1c1ccccc1` [Compound 34, N^1,N^1,N^4,N^4-Tetrakis(3-oxo-3-(((1S,2R)-2-phenyl-cyclopropyl)amino)propyl)terephthalamide]: in assay [1], the “activity in stimulating TNF-α release from mouse macrophages (in words)” value was “inactive”.

Consider `O=C(NCCc1ccc(F)cc1)[C@H]1CN(C(=O)c2ccc(C(=O)N3C[C@H](C(=O)NCCc4ccc(F)cc4)[C@@H](C(=O)NCCc4ccc(F)cc4)C3)cc2)C[C@@H]1C(=O)NCCc1ccc(F)cc1` [Compound 98, (3R,3′R,4R,4′R)-1,1′-Terephthaloyl-bis(N^3,N^4-bis-(4-fluorophenethyl)pyrrolidine-3,4-dicarboxamide)], for which the EC50 in assay [2] (THP-1, running text b169, read-out: EC50, stimulated release of TNF-α from human THP-1 cells) is over 5000 nM. Besides, the “fold less potent than the all S enantiomer 4” value in assay [2] (human THP-1 cells) is on record as over 100 fold. Regarding `O=C(NCCc1ccc(F)cc1)[C@H]1CN(C(=O)c2ccc(C(=O)N3C[C@H](C(=O)NCCc4ccc(F)cc4)[C@@H](C(=O)NCCc4ccc(F)cc4)C3)cc2)C[C@@H]1C(=O)NCCc1ccc(F)cc1` (racemic) [Compound 69, 1,1′-Terephthaloylbis(N^3,N^4-bis(4-fluoro-phenethyl)-yrrolidine-trans-3,4-dicarboxamide)], the EC50 in assay [2] (setting [7]) amounted to 100 nM. `O=C(NCCc1cccc(F)c1)[C@H]1CN(C(=O)c2ccc(C(=O)N3C[C@H](C(=O)NCCc4cccc(F)c4)[C@@H](C(=O)NCCc4cccc(F)c4)C3)cc2)C[C@@H]1C(=O)NCCc1cccc(F)c1` (racemic) [Compound 84, 1,1′-Terephthaloylbis(N^3,N^4-bis(3-fluoro-phenethyl)pyrrolidine-trans-3,4-dicarboxamide)]: the EC50 amounted to 1000 nM in assay [2] (THP-1, Table 5 footnote, racemates, TNF-α release from human differentiated THP-1 cells, read-out: EC50) and 1000 nM in assay [2] (setting [7]). Moreover, the “fold less active (3- vs 4-fluorophenethylamide)” value in assay [2] (human THP-1 cells, racemates) was over 10 fold.

Turning to `O=C(N[C@H]1C[C@@H]1c1ccccc1)[C@H]1CCN(C(=O)c2ccc(C(=O)N3C[C@@H](C(=O)N[C@H]4C[C@@H]4c4ccccc4)[C@H](C(=O)N[C@H]4C[C@@H]4c4ccccc4)C3)cc2)C1` [Compound 29, (3S,4S)—N^3,N^4-Bis((1S,2R)-2-phenyl-cyclopropyl)-1-(4-((S)-3-(((1S,2R)-2-phenyl-cyclopropyl)-carbamoyl)-pyrrolidine-1-carbonyl)-benzoyl)pyrrolidine-3,4-dicarboxamide], in assay [2] (setting [7]), the EC50 came to 200 nM. The “fold less active/potent than diprovocim-1 (3)” value in assay [2] (human THP-1 cells) was determined as 2000 fold. As to `O=C(NCCc1ccccc1)[C@@H]1CN(C(=O)c2ccc(C(=O)N3C[C@@H](C(=O)NCCc4ccccc4)[C@H](C(=O)N[C@H]4C[C@@H]4c4ccccc4)C3)cc2)C[C@H]1C(=O)NCCc1ccccc1` (relative stereo) [Compound 9], the “activity in stimulating TNF-α release from human THP-1 cells (in words)” value in assay [2] (tested up to 5 μM where stated) was “inactive”. For the molecule `O=C(N[C@H]1C[C@@H]1c1ccccc1)[C@@H]1CN(C(=O)c2ccc(C(=O)N3C[C@@H](C(=O)N[C@H]4C[C@@H]4c4ccccc4)[C@H](C(=O)N[C@H]4C[C@@H]4c4ccccc4)C3)cc2)C[C@H]1C(=O)N[C@H]1C[C@@H]1c1ccccc1` [Compound 3, (3S,3′S,4S,4′S)-1,1′-Terephthaloylbis(N^3,N^4-bis((1S,2R)-2-phenylcyclopropyl)pyrrolidine-3,4-dicarboxamide)], the EC50 turned out to be 1 nM in assay [1] (setting [5]); 1 nM in assay [1] (Mus musculus, Scheme 1, footnote b, read-out: EC50 TNF-α release from mouse macrophages); 1 nM in assay [1] (Mus musculus, read-out: EC50, stimulated release of TNF-α from mouse macrophages). `O=C(NCCc1ccc(F)cc1)[C@H]1CN(C(=O)c2ccc(C(=O)N3C[C@@H](C(=O)NCCc4ccc(F)cc4)[C@H](C(=O)NCCc4ccc(F)cc4)C3)cc2)C[C@@H]1C(=O)NCCc1ccc(F)cc1` [Compound 99, (3S,4S)-1-(4-((3R,4R)-3,4-Bis((4-fluorophen-ethyl)carbamoyl)pyrrolidine-1-carbonyl)benzoyl)—N^3,N^4-bis(4-fluorophenethyl)pyrrolidine-3,4-dicarboxamide]: in assay [2] (setting [7]), the EC50 stood at 70 nM. On to `O=C(NCCc1ccccc1)[C@@H]1CN(C(=O)c2ccc(C(=O)N3C[C@@H](C(=O)NCCc4ccccc4)[C@H](C(=O)N[C@H]4C[C@@H]4c4ccccc4)C3)cc2)C[C@H]1C(=O)N[C@H]1C[C@@H]1c1ccccc1` (stereo in doubt) [Compound 10, trans,trans-1, 1′-Terephthaloylbis(N^3-phenethyl-N^4-(trans-2-phenylcyclopropyl)pyrrolidine-3,4-dicarboxamide)], for which the EC50 in assay [2] (setting [7]) came out at 80 nM.
